Patent US10207988B2, “Methods and compositions for treatment of cancer and autoimmune disease” (THE JACKSON LABORATORY, priority 2011, dated 2019)

Experiments:
[1] = test system: primary mouse B-cells from AID knockout mice (AID−/−); assay: viable cell counts (Trypan blue) of primary B-cells cultured with DIDS; format: cell-based; conditions: 0-150 μM DIDS
Description: (§1) Primary mouse B-cells were isolated from spleens of adult C57BL/6J mice (AID+/+) and from AID knockout mice (AID−/−) (see Example 1 and 2). 1×10^^6 primary B-cells were seeded into tissue culture plates, stimulated with 1 μg/ml anti-CD40 antibodies (anti-CD40; BD Pharmingen; Cat. No. 553721) and 25 ng/ml IL-4 or with anti-CD40 alone on day 0 and day 2. 0, 50 μM, 100 μM or 150 μM of DIDS was added at time 0 and 2 days after culture initiation, when culture volumes were adjusted to accommodate cell growth. The cells were cultured over 6 days. The number of viable cells were counted after staining with Trypan blue using a hemacytometer on days 1, 2, 3, 4 and 6. In FIG. 7 the number of viable primary B-cells from C57BL/6J mice (AID+/+) and AID-knockout mice (AID−/−) after treatment with DIDS is shown.

[2] = test system: primary mouse B-cells from C57BL/6J mice (AID+/+); assay: as above; format: cell-based
Description: as §1

[3] = test system: cells isolated from the spleens of wild type or AID knockout (−/−) mice; assay: splenocyte viability, Guava EasyCyte Flow Cytometer Assay; format: cell-based, mouse; conditions: 150 μM DIDS, stimulated with anti-CD40 antibodies and IL-4
Description: Cells isolated from the spleens of wild-type (WT) or AICDA knock-out (−/−) mice were stimulated with anti-CD40 antibodies and IL-4 on day 0 and day 2. DIDS was added on day 0 and day 2 at concentrations of 0 or 150 μM. WT cells stimulated with anti-CD40 antibodies plus IL-4 and treated with DIDS are shown as filled boxes, AICDA−/− cells stimulated with anti-CD40 antibodies plus IL-4 and treated with DIDS as circle; WT cells stimulated with anti-CD40 antibodies plus IL-4 are shown as open diamonds; and AICDA−/− cells stimulated with anti-CD40 plus IL-4 antibodies as open triangles. The total number of viable cells was determined every other day. Days are shown on the x-axis and the fraction of viable cells is shown on the y-axis.
Cells were isolated from the spleens of wild type or AID knockout (−/−) mice, cultured and stimulated with anti-CD40 antibodies and IL-4 on day 0 and day 2. DIDS was added on day 0 and day 2 at concentrations of 0 or 150 μM. The total number of viable cells was determined every other day using Guava EasyCyte Flow Cytometer Assay.

[4] = test system: primary mouse splenic B-cells (B220+ IgM+); assay: radiosensitization of primary mouse B-cells by DIDS (Trypan blue dye exclusion); format: cell-based; conditions: 2.5 Gy gamma irradiation combined with DIDS, starting at 50 micromolar, 24 hours after irradiation
Description: Primary mouse splenic B-cells were isolated from normal, wild-type C57BL/6J mice as described in Example 1 and sorted with magnetic beads (Miltenyi) to enrich B220+ IgM+ B-cells. Purified B-cells were cultured in complete RPMI-1640 medium with 10% FBS with 0, 50, 100, or 150 micromolar DIDS. Cells were then subjected to either 0 (FIG. 14, filled circles) or 2.5 Gy (=250 rads; FIG. 14, open circles) of gamma irradiation in a Cs137 irradiator. Cell viability was subsequently scored for each condition and plotted relative to the no DIDS condition by manual cytometry using a hemacytometer and Trypan blue dye exclusion 24 hours after irradiation. The fraction of viable cells is reported normalized to the corresponding 0 μM DIDS condition. Error bars represent the standard error of the mean (S.E.M) from three independent experiments.

[5] = test system: phospho-H2AX foci in mouse primary splenocytes (AID+/+ and AID−/−); assay: phospho-H2AX foci in activated splenocytes exposed to DIDS; format: cell-based; conditions: 150 micromolar DIDS
Description: Mouse primary splenocytes isolated from 8-12 week old wild type (AID+/+) and AID-knockout (AID−/−) mice as described in Example 1 were exposed to 150 micromolar DIDS, and activated by anti-CD40 antibody plus interleukin-4, fixed and stained for the DNA break marker phospho-H2AX and for nuclear DNA using the fluorescent DNA staining dye 4′,6-diamidino-2-phenylindole (DAPI). In FIG. 16A the fraction of cells containing 0, 1-2, or greater than 2 phospho-H2AX positive foci was quantified for AID+/+ (filled bars) and AID−/− (open bars) cells. […] In FIG. 16B the proportion of phospho-H2AX positive cells (filled bars) versus phospho-H2AX negative cells (open bars) was quantified for AID+/+ in comparison to AID−/− cultures. […] In FIG. 16C the number of foci per cell was quantified for DIDS-treated AID+/+ (filled bars) versus AID−/− (open bars) cells. Data are expressed as the absolute number of cells (y-axis) harboring the indicated number of phosphor-H2AX foci (from 0 to >20; x-axis).

[6] = test system: activated caspase 3 (AC3) in AID+ and AID− primary human CLL cells; assay: activated caspase 3 (AC3) staining in primary human CLL cells treated with DIDS; format: cell-based; conditions: 30 μM DIDS, 3 days in culture
Description: Primary human CLL patient derived cells were obtained from peripheral bleeds collected at the time of routine clinical monitoring. Primary peripheral blood samples were collected via routine venipuncture into BD Vacutainer CPT Cell Separation Tubes. Samples were centrifuged to separate red blood cells (RBC) and then inverted to resuspend the mononuclear cells in their own plasma. Samples were stored overnight at the site of collection at room temperature then shipped via courier to the site of analysis. Each sample was tested for AID expression status by reverse transcription PCR (RT-PCR) to detect presence of the human AID mRNA (see Example 11). Samples were then divided into AID+ (those showing detectable levels of AID mRNA) and AID− (those showing no detectable AID mRNA above background) groups. Multiple independent cultures from different AID+ and AID− samples were initiated in standard RPMI-1640 medium containing 10% FBS plus either 0 or 30 μM DIDS. After 3 days in culture, cells from were fixed with paraformaldehyde, mounted on microscope coverslips, permeabilized by washing with weak detergent, and processed for immunofluorescent detection of the apoptosis marker activated caspase 3 (AC3) (primary antibody: cat. No. ab13847, Abcam; 1:100 dilution). Nuclear DNA was counterstained with 4′,6-diamidino-2-phenylindole (DAPI). […]

SMILES: O=S(=O)([O-])c1cc(N=C=S)ccc1/C=C/c1ccc(N=C=S)cc1S(=O)(=O)[O-].[Na+].[Na+] [DIDS, 4,4′diisothiocyanostilbene-2,2′-disulfonic acid]
- number of viable cells [1]: no significant change in cell viability
- number of viable cells ([2]; 100 μM DIDS, stimulated with anti-CD40 + IL-4): decrease of B-cell viability
- number of viable cells ([2]; 150 μM DIDS, stimulated with anti-CD40 + IL-4, days 1-6): greatly reduces the cell viability from day 3 on
- number of viable cells ([2]; not stimulated with anti-CD40+IL-4): does not influence the cell viability
- total number of viable cells [3]: lower viability
- fraction of viable cells [4]: reduces viability significantly
- proportion of phospho-H2AX positive cells ([5]; AID+/+ in comparison to AID−/− cultures): higher percentage of phospho-H2AX positive cells
- fraction of cells with greater than 2 phospho-H2AX foci ([5]; AID+/+ versus AID−/− cells): significant higher fraction of cells with greater than 2 foci
- fraction of cells showing positive staining for AC3 [6]: higher fraction of AC3-positive cells
